The values that follow come from patent US20260207585A1, “METHODS AND COMPOSITIONS FOR THE TREATMENT OF PARKINSON'S DISEASE, HUNTINGTON'S DISEASE, AMYOTROPHIC LATERAL SCLEROSIS, AND LEARNING DISORDERS” (Cedars-Sinai Medical Center, priority 2022, published 2026).

Structures are written as SMILES. Read-outs that look alike come from different tables or passages of the source.

For one test, the target named is DNMT3a (Homo sapiens, UniProt Q9Y6K1). The test is described as follows: Methyltransferase inhibition panel: DNMT3a. Conditions: NT1721 20 μM; substrate Lambda DNA 0.0075 mg/mL. It is filed as biochemical. The method, then: (§1) The ability of ETP69 to inhibit methyltransferases was tested.
Sequence of DNMT3a (Q9Y6K1 whole entry, looked up): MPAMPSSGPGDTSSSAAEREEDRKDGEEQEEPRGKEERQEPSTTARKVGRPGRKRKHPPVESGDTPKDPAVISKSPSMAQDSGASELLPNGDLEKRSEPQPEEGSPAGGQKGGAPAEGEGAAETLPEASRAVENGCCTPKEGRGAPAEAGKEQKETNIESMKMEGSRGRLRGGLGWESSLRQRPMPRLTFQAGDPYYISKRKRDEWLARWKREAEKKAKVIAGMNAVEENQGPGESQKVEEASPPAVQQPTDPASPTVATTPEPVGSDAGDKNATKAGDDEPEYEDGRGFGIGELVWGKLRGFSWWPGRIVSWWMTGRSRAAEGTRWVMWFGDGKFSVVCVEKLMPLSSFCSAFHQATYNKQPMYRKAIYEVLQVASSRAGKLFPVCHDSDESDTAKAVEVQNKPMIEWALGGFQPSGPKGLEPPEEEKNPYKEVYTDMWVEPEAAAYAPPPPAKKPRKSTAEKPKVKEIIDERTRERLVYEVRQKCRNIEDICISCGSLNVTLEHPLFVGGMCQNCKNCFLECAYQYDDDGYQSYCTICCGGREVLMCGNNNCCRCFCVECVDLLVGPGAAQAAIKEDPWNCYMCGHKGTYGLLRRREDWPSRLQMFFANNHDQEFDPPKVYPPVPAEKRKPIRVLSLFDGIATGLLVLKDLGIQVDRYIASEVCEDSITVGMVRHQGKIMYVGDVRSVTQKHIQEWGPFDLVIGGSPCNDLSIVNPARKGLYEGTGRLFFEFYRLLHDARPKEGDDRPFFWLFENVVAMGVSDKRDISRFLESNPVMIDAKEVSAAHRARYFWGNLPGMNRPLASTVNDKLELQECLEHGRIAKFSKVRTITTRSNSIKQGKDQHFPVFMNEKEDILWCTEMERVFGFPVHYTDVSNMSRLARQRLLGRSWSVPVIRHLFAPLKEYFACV
In the next test the target is DNMT3b/3L (Homo sapiens, UniProt Q9UBC3). The test is described as follows: Methyltransferase inhibition panel: DNMT3b/3L. It is filed as biochemical. The method, then: as §1
In another test the target is EZH1 Complex (Homo sapiens, UniProt Q92800). The test is described as follows: Methyltransferase inhibition panel: EZH1 Complex. It is filed as biochemical. Conditions: NT1721 20 μM; substrate Core Histone 0.05 mg/mL. How it is done: as §1
A further test concerns the target T1, NSD3 (Homo sapiens, UniProt Q9BZ95).
T1 sequence (Q9BZ95 1-1437): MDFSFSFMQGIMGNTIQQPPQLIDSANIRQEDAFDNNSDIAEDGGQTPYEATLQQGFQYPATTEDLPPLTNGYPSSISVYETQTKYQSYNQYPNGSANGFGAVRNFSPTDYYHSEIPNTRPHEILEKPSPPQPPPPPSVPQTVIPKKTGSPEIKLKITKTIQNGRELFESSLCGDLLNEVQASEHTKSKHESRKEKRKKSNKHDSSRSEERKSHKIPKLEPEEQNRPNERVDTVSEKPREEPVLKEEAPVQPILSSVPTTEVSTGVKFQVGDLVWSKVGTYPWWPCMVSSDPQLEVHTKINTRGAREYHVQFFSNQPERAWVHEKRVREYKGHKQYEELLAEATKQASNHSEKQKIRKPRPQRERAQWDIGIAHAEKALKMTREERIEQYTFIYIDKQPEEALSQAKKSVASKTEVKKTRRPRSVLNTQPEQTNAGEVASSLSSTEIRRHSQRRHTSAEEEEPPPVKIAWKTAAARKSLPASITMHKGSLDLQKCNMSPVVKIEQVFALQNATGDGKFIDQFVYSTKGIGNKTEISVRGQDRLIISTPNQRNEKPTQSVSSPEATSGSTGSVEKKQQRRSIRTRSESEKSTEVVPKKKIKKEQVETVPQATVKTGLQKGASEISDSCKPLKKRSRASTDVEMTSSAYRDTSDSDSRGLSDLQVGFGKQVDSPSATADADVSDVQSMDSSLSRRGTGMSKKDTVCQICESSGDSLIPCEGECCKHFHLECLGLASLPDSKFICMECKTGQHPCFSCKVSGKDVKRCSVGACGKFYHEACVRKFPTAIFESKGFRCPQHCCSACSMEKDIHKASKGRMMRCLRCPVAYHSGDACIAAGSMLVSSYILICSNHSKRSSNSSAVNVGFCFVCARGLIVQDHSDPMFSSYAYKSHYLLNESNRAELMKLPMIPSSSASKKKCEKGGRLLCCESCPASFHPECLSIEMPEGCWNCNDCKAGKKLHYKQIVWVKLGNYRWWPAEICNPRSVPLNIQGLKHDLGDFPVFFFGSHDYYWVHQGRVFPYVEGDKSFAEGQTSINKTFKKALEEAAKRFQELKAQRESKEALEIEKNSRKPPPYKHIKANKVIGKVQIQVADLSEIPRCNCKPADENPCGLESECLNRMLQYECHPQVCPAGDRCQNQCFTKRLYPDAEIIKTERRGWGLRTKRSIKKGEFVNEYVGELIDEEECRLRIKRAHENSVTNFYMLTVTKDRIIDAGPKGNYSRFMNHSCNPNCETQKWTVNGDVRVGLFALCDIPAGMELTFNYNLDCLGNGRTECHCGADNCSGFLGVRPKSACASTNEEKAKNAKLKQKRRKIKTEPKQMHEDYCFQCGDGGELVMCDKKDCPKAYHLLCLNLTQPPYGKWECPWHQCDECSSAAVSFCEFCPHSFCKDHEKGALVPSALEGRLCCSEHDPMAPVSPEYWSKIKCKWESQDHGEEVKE
The test is described as follows: Methyltransferase inhibition panel: NSD3. It is filed as biochemical. How it is done:
as §1

In the next test the target is PRMT8 (Homo sapiens, UniProt Q9NR22). The test is described as follows: Methyltransferase inhibition panel: PRMT8. It is filed as biochemical. The method, then: as §1
Sequence of PRMT8 (Q9NR22 whole entry): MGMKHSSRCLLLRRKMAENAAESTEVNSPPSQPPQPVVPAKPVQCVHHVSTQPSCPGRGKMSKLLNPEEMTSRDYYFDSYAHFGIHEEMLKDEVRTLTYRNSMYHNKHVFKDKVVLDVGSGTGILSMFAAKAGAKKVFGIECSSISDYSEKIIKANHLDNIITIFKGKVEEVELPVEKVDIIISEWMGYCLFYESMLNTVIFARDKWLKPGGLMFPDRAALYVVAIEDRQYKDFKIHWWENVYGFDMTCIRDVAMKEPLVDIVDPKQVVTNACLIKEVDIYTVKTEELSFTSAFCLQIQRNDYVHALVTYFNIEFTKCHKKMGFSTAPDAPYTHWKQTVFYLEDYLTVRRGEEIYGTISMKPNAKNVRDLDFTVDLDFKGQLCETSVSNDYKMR
For the next test, the target named is SETD2 (Homo sapiens, UniProt Q9BYW2). The test is described as follows: Methyltransferase inhibition panel: SETD2. It is filed as biochemical. How it is done: as §1
Sequence of SETD2 (Q9BYW2 whole entry): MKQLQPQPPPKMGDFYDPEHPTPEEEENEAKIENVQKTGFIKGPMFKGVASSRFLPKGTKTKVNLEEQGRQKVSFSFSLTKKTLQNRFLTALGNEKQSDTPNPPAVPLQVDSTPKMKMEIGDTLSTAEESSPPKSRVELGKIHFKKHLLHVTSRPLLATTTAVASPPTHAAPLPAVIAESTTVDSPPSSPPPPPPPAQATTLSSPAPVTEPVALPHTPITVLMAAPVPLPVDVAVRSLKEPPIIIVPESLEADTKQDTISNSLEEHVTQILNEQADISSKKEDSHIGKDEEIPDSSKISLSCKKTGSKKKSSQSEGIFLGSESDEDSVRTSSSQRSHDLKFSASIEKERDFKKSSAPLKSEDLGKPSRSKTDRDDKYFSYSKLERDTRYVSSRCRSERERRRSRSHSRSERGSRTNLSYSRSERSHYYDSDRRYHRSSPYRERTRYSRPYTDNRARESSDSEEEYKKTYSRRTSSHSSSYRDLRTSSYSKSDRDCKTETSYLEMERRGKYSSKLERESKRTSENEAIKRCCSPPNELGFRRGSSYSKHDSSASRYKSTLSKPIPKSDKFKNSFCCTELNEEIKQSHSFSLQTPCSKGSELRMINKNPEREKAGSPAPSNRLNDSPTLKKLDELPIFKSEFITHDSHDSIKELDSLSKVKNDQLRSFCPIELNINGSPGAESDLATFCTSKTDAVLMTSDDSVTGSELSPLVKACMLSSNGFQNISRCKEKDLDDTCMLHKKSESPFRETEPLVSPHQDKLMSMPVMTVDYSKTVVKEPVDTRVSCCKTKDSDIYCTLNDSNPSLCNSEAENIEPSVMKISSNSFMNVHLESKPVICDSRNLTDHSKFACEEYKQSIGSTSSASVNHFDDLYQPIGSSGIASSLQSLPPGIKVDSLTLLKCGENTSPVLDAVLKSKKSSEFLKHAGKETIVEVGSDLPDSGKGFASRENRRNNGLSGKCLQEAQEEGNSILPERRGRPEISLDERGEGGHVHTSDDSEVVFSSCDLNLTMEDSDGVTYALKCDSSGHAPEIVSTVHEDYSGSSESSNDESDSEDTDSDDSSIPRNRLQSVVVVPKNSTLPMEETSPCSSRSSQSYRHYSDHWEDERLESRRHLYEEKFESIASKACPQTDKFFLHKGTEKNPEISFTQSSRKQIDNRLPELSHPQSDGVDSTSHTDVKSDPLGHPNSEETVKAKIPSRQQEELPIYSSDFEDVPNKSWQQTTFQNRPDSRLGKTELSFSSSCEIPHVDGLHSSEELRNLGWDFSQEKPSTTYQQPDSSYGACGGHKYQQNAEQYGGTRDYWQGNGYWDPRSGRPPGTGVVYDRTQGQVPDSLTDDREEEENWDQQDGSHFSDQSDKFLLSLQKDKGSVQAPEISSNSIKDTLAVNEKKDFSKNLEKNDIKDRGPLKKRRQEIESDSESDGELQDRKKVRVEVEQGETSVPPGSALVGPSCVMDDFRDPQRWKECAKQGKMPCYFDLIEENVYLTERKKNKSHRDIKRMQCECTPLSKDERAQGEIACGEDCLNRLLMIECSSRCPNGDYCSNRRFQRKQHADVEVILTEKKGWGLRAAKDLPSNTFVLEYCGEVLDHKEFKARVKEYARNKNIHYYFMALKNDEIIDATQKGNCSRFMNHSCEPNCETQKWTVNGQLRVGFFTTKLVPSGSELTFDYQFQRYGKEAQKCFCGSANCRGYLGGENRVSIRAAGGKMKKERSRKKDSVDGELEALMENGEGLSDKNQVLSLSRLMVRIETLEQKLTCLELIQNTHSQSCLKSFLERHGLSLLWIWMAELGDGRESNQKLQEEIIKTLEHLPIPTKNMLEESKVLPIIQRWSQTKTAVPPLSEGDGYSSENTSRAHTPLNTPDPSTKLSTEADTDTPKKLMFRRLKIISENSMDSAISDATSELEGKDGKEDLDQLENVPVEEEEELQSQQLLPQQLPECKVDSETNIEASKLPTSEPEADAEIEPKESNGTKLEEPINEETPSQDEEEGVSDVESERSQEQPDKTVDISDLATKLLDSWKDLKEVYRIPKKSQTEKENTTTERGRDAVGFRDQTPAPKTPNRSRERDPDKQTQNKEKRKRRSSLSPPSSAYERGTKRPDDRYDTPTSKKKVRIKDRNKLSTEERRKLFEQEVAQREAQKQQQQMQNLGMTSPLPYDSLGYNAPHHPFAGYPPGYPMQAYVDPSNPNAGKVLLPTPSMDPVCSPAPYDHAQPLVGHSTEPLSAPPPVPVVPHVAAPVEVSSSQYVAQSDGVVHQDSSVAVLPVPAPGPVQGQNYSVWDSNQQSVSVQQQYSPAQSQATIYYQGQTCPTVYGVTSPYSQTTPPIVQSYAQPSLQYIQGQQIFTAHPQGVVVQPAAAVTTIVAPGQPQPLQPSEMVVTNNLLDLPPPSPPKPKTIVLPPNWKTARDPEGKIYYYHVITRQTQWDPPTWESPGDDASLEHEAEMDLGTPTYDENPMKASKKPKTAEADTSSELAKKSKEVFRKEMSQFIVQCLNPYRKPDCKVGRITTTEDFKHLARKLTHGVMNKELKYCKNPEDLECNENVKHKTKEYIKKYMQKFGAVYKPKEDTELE
For a further test, the target named is SUV39H2 (Homo sapiens, UniProt Q9H5I1). The test is described as follows: Methyltransferase inhibition panel: SUV39H2. It is filed as biochemical. The method, then:
as §1

In test [1] the test system is wildtype and AD model (APP/PS1-transgenic) mice. The test is described as follows: Visual stimuli X-maze (ViS4M) test, colour and contrast modes. It is filed as in vivo. The method, then: The effects of single and repeated ETP69 injections in mice were tested. The experimental timeline is depicted in FIG. 5. Three parallel injection conditions were tested: a single ETP69 condition, a boosted ETP69 injection, and repeated ETP69 injections. The single injection mice received one injection of ETP69 or DMSO at Day 0. The mice that received a boosted injection received one injection of ETP69 or DMSO at day 0 and one injection at day 9. The mice that received repeated injections received 11 injections of ETP69 or DMSO at day 0 or day 9. Both wildtype and AD model (APP/PS1-transgenic) mice were tested.
FIG. 6C-6F depicts the results of the mice on the color mode of the visual stimuli X-maze test. […] FIG. 6G-611 depict the results of the contrast mode of the visual stimuli X-maze test.
Old (18-month-old) mice were administered ETP69. Both a neurodegenerative model (AD+) and wild type siblings were tested. Mice were treated with i.p. injection of ETP69 [E; 10 mg/kg dissolved in dimethyl sulfoxide (DMSO)].

For the next test, the system named is GFAP. The test is described as follows: GFAP staining of brain sections. It is filed as in vivo. Conditions: AD+ mice; 4 and 15 days. The text has this: ETP69 administration reduced AD-related brain pathology (FIGS. 9A-9C). Brain sections were stained for H3K9me3, 6E10 and GFAP.
The test system of a further test is BDNF and VGF pathways. The test is described as follows: Gene expression in treated mice (BDNF and VGF pathways). As to conditions: mice treated with ETP69 vs DMSO. It is filed as in vivo. The method, then:
Gene expression was measured in mice treated with ETP69 and DMSO. As depicted in FIG. 3, genes in the BDNF and VGF pathways were activated. These pathways are consistent with protective neurotrophic support. This pathway correlates with reduced H3K9me3 and improved cognition. FIG. 4A depicts genes in the BDNF pathway inhibited (left) and activated (right) by ETP69. The inactivated genes are quantified in FIGS. 4B-4F. The activated genes are quantified in FIGS. 4G-4M.

Setting [2] is: read-out: Enzyme % Activity (relative to DMSO controls) Data 1.
[3] abbreviates: read-out: Enzyme % Activity (relative to DMSO controls) Data 2.
The mark [4] stands for this setting: NT1721 20 μM, substrate Nucleosomes 0.05 mg/mL.

Sequence of SUV39H2 (Q9H5I1 whole entry): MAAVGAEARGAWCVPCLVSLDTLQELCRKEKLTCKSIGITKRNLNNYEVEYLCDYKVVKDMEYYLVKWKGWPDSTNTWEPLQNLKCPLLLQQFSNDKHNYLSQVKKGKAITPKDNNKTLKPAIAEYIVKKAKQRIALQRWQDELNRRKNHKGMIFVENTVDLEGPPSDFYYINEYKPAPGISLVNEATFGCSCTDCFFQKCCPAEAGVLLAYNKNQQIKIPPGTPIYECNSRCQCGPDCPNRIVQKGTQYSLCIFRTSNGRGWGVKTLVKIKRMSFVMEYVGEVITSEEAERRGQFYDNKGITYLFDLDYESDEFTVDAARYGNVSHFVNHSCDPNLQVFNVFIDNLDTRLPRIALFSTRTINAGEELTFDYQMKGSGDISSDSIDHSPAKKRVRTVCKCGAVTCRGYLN

Turning to `CN1C(=O)[C@@]23C[C@](C)(C#N)[C@H](c4ccc5c(c4)OCO5)N2C(=O)[C@]1(C)SS3` (racemic) [ETP69, Rac-(3S,6S,7S,8aS)-6-(benzo[d][1,3]dioxol-5-yl)-2,3,7-trimethyl-1,4-dioxohexahydro-6H-3,8a-epidithiopyrrolo[1,2-a]pyrazine-7-carbonitrile], the “Enzyme % Activity (relative to DMSO controls) Data 1” value stood at 76.81% at DNMT3a, 103.44% at EZH1 Complex, 10.33% at NSD3 (setting [4]) and 20.95% at SETD2 (setting [4]). Besides, the “Enzyme % Activity (relative to DMSO controls) Data 2” value on DNMT3a turned out to be 78.12%; at EZH1 Complex, 104.86%; at NSD3 (setting [4]), 10.21%; on SETD2 (setting [4]), 22.89%. Also, the remaining activity at 20 µM is 113% on DNMT3b/3L (setting [2]); 111% at DNMT3b/3L (setting [3]); 95.7% at PRMT8 (setting [2]); 94.7% at PRMT8 (setting [3]); 4.4% at SUV39H2 (setting [2]); 4.4% on SUV39H2 (setting [3]). In addition, the “inhibition relative to DMSO controls” value against NSD3 (summary of Table 1), on SETD2 (summary of Table 1) and against SUV39H2 (summary of Table 1) was “at least 7500” in each case. For the same compound, the “percent alternation and bidirectional movement” value in test [1] (color mode, AD+ mice) was “significant increase”. Besides, the percent alternation entry in test [1] (contrast mode, AD+ mice) is “significant increase”. Besides, the “colour X-maze spontaneous alternations” value in [1] (old WT mice, single dose 10 mg/kg i.p., p=0.0027) is “increased”. In the test on GFAP, the GFAP result is given as “significant decrease”. The “genes in the BDNF and VGF pathways” value with BDNF and VGF pathways is given as “activated”.
